Data from US9556228B2 (Universitaet Leipzig, priority 2011, dated 2017).
≈ marks a conversion by molar mass, not a printed value. Entries after “also recorded” stand apart in the source; their conditions may differ. Peptide text beside a SMILES is read from it. * marks the point of attachment. Orn(α-tetramethylguanidino) = CN(C)C(=N[C@@H](CCCN)C(=O)*)N(C)C

Tests used:
[1] = cited from earlier work
[2] = test system: Pseudomonas aeruginosa (luminescent strain); assay: Substitution analysis of apidaecin 1b by peptide array, bioluminescence assay; type: cell-based; conditions: FIG. 1, luminescence, P. aeruginosa
Procedure: To optimize the antimicrobial activity of apidaecin 1b, a substitution analysis was carried out using this peptide (according to SEQ ID No. 2). The substitution library was synthesized by means of SPOT synthesis, and was analyzed for antibacterial activity against Pseudomonas aeruginosa by means of bioluminescence assay.
The SPOT synthesis of the peptide libraries was carried out on Whatman 50 filter paper (Sigma-Aldrich, Germany) measuring 19×29 cm by means of the Fmoc method and a SPOT synthesizer (Intavis AG, Germany) (according to Reineke U et al. 2001). The luminescence screening method that was used is based on the publication by Hilpert and Hancock (Hilpert, 2007). The peptides synthesized on the membrane were split off and the peptide spots were punched out of the peptide membrane using a hole punch, and were transferred to a 96-well microtiter plate (Corning, USA), after which 200 μL distilled water per well was added. […]
In the second step, the actual screening was performed. […] The incubation suspension (4 vol. % Log C in 100 mM Tris-HCl buffer (pH 7.3) with 40 mM sterile filtered glucose) was then distributed to 96-well plates (VWR, Germany) that are suitable for luminescence, and incubated with a concentration series of the peptide library for 4 hours at 37° C. After incubation, luminescence measurement was performed using a luminometer (Thermo, Finland).

S. aureus DSM 6247 [3] = type: cell-based, Staphylococcus aureus
Procedure: (§1) The minimum inhibitory concentrations (MIC) of the peptides were determined in a double assay of triplicates using a positive control sample (gentamycin) and a negative control sample (0.9% NaCl solution), according to a modified protocol from Wiegand et al. (Wiegand, 2008).
(§2) For this purpose, the peptides were dissolved in water and were diluted in a double dilution series with 1/8 MH (eight-fold diluted Mueller-Hinton-Medium—2.6 g/L, Merck) in sterile 96-well, plates (Greiner Bio-One GmbH) in twelve dilution steps from 128 μg/mL to 62.5 ng/mL. Overnight cultures were adjusted using ⅛ MHB to approximately 1.5×10^7 colony forming units per mL. Of these, 50 μL of peptide solution per well was mixed with 50 μL bacteria solution each to obtain an initial concentration of […] bacteria per well. After 20 hours of incubation at 37′C, the absorption was determined at 595 nm (microplate reader, Wallac Victor3, Perkin Elmer). The minimum inhibitory concentration was identified as the lowest peptide concentration at which no bacterial growth could be detected.
(§3) In the experiment, the antibacterial activity of the peptides according to the invention in relation to the following bacterial strains was analyzed: Pseudomonas aeruginosa PAO1 (wt strain), Pseudomonas aeruginosa DSM 9644, Staphylococcus aureus DSM 1104/ATCC 25923, Staphylococcus aureus ATCC 6247, Escherichia coli UB 1005 (F—, nalA37, metB1) and Escherichia coli ATCC25922.

[4] = test system: Escherichia coli ATCC25922; type: cell-based
[5] = test system: Pseudomonas aeruginosa DSM 9644; type: cell-based
Procedure: as §1
as §2, with “For this purpose, the peptides were dissolved in water and were diluted in a double dilution series with 1/8 MH (eight-fold diluted Mueller-Hinton-Medium—2.6 g/L, Merck) in sterile 96-well, plates (Greiner Bio-One GmbH) in twelve dilution steps from 128 μg/mL to 62.5 ng/mL.” left out
as §3

E. coli DSM 1103 = type: cell-based, Escherichia coli
Procedure: as §1, §2

E. coli BL21AI = type: cell-based, Escherichia coli
K. pneumoniae DSM 681 = type: cell-based
Procedure: as §1
as §2, with “For this purpose, the peptides were dissolved in water and were diluted in a double dilution series with 1/8 MH (eight-fold diluted Mueller-Hinton-Medium—2.6 g/L, Merck) in sterile 96-well, plates (Greiner Bio-One GmbH) in twelve dilution steps from 128 μg/mL to 62.5 ng/mL.” left out

in vitro = conditions: for half-life: mouse
Procedure: The serum stability of selected apidaecin derivatives was also measured.

S. aureus DSM 6247 [6] = type: cell-based, Staphylococcus aureus; remark: listed apart in the source

| Compound | MIC E. coli ATCC 25922 TSB [4] | MIC P. aeruginosa DSM 9644 TSB [5] | MIC E. coli BL21AI TSB (E. coli BL21AI) | MIC K. pneumoniae DSM 681 TSB (K. pneumoniae DSM 681) | MIC S. aureus DSM 6247 MHB (S. aureus DSM 6247 [6]) | other results |
| --- | --- | --- | --- | --- | --- | --- |
| gu-ONNRPVYIPRPRPPHPRL-OH |  |  |  |  |  | fragment found (100% mouse serum): gu-O1-R17 |
| gu-OWNRPVYIPRPRRPHPRL-NH2 |  |  |  |  |  | fragment found (25% mouse serum): gu-O1-R17; also recorded: gu-O1-R12 |
| gu-OWNRPVYIPRPRPPHPRL-OH |  |  |  |  |  | fragment found (100% mouse serum): gu-O1-R17 |
| CC[C@H](C)[C@H](NC(=O)[C@@H]1CCCN1C(=O)[C@H](CCCNC(=N)N)NC(=O)[C@@H]1CCCN1C(=O)[C@H](Cc1cnc[nH]1)NC(=O)[C@H](CO)NC(=O)[C@@H](NC(=O)[C@@H]1CCCN1C(=O)[C@H](CCCNC(=N)N)NC(=O)[C@@H]1CCCN1C(=O)[C@H](CO)NC(=O)[C@H](Cc1ccc(O)cc1)NC(=O)[C@@H]1CCCN1C(=O)[C@H](CCCNC(=N)N)NC(=O)[C@@H]1CCCN1C(=O)[C@H](CCCCN)NC(=O)CN)[C@@H](C)O)C(=O)N[C@@H](CCCNC(=N)N)C(=O)N[C@H](C(=O)O)C(C)C [drosocin] (H-GKPRPYSPRPTSHPRPIRV-OH) |  |  |  |  |  | breakdown in mammalian serum (25%) [1]: broken down within one hour |
| gu-OWNRPVYIPRPRRPHPRL-OH |  |  |  |  |  | fragment found (100% mouse serum): gu-O1-R12 (Api341 analogue) |
| gu-ONNRPVYIPRPRPPHPRL-NH2 |  |  |  |  |  | fragment found (25% mouse serum): gu-O1-R17 |
| native apidaecin sequence that is substituted at position 1 with cysteine: apidaecin 1b (SEQ ID No. 2) substituted at position 1 with cysteine, from the SPOT substitution library (CNNRPVYIPQPRPPHPRL; listed as Apis mellifera) |  |  |  |  |  | substitution analysis value (measure of the activity; less than 1 = enhancement relative to native apidaecin) [2]: 0.55 |
| CC[C@H](C)[C@H](NC(=O)[C@H](Cc1ccc(O)cc1)NC(=O)[C@@H](NC(=O)[C@@H]1CCCN1C(=O)[C@H](CCCNC(=N)N)NC(=O)[C@H](CC(N)=O)NC(=O)[C@H](Cc1c[nH]c2ccccc12)NC(=O)[C@H](CCCN)N=C(N(C)C)N(C)C)C(C)C)C(=O)N1CCC[C@H]1C(=O)N[C@@H](CCCNC(=N)N)C(=O)N1CCC[C@H]1C(=O)N[C@@H](CCCNC(=N)N)C(=O)N1CCC[C@H]1C(=O)N1CCC[C@H]1C(=O)N[C@@H](Cc1c[nH]cn1)C(=O)N1CCC[C@H]1C(=O)N[C@@H](CCCNC(=N)N)C(=O)N[C@@H](CC(C)C)C(=O)O [compound 85] ({Orn(α-tetramethylguanidino)}-WNRPVYIPRPRPPHPRL-OH; N-terminus and C-terminus assumed) | 4 µg/mL (≈ 1.69 µM) | 8 to 16 µg/mL | 2 µg/mL (≈ 0.846 µM) | 2 µg/mL (≈ 0.846 µM) | 4 µg/mL (≈ 1.69 µM) | MIC S. aureus DSM 6247 (S. aureus DSM 6247 [3]): 16 µg/mL (≈ 6.77 µM); MIC P. aeruginosa PAO DSM 9644 [5]: 16 µg/mL (≈ 6.77 µM); MIC E. coli DSM 1103 (E. coli DSM 1103): 4 µg/mL (≈ 1.69 µM); half-life (in vitro; 100% mouse serum): 3.95 ± 0.25 h |
| CC[C@H](C)[C@H](NC(=O)[C@H](Cc1ccc(O)cc1)NC(=O)[C@@H](NC(=O)[C@@H]1CCCN1C(=O)[C@H](CCCNC(=N)N)NC(=O)[C@H](CC(N)=O)NC(=O)[C@H](Cc1c[nH]c2ccccc12)NC(=O)[C@H](CCCN)N=C(N(C)C)N(C)C)C(C)C)C(=O)N1CCC[C@H]1C(=O)N[C@@H](CCCNC(=N)N)C(=O)N1CCC[C@H]1C(=O)N[C@@H](CCCNC(=N)N)C(=O)N[C@@H](CCCNC(=N)N)C(=O)N1CCC[C@H]1C(=O)N[C@@H](Cc1c[nH]cn1)C(=O)N1CCC[C@H]1C(=O)N[C@@H](CCCNC(=N)N)C(=O)N[C@@H](CC(C)C)C(=O)O [compound 87] ({Orn(α-tetramethylguanidino)}-WNRPVYIPRPRRPHPRL-OH; N-terminus and C-terminus assumed) | 8 µg/mL (≈ 3.3 µM) | 8 µg/mL (≈ 3.3 µM) | 8 µg/mL (≈ 3.3 µM) | 4 to 8 µg/mL | 4 µg/mL (≈ 1.65 µM) | MIC S. aureus DSM 6247 (S. aureus DSM 6247 [3]): 16 µg/mL (≈ 6.6 µM); MIC P. aeruginosa PAO DSM 9644 [5]: 8 µg/mL (≈ 3.3 µM); MIC E. coli DSM 1103 (E. coli DSM 1103): 8 µg/mL (≈ 3.3 µM); peptide remaining, printed in the column t1/2 100% serum (in vitro; 100% mouse serum, after 2 hours): 0% after |
| CC[C@H](C)[C@H](NC(=O)[C@H](Cc1ccc(O)cc1)NC(=O)[C@@H](NC(=O)[C@@H]1CCCN1C(=O)[C@H](CCCNC(=N)N)NC(=O)[C@H](CC(N)=O)NC(=O)[C@H](CC(N)=O)NC(=O)[C@H](CCCN)N=C(N(C)C)N(C)C)C(C)C)C(=O)N1CCC[C@H]1C(=O)N[C@@H](CCCNC(=N)N)C(=O)N1CCC[C@H]1C(=O)N[C@@H](CCCNC(=N)N)C(=O)N1CCC[C@H]1C(=O)N1CCC[C@H]1C(=O)N[C@@H](Cc1c[nH]cn1)C(=O)N1CCC[C@H]1C(=O)N[C@@H](CCCNC(=N)N)C(=O)N[C@@H](CC(C)C)C(=O)O [compound 93] ({Orn(α-tetramethylguanidino)}-NNRPVYIPRPRPPHPRL-OH; N-terminus and C-terminus assumed) | 4 µg/mL (≈ 1.75 µM) | 16 µg/mL (≈ 6.98 µM) | 1 µg/mL (≈ 0.436 µM) | 2 µg/mL (≈ 0.873 µM) | 16 to 32 µg/mL | half-life (in vitro; 100% mouse serum): 5.83 ± 0.567 h |
| CC[C@H](C)[C@H](NC(=O)[C@H](Cc1ccc(O)cc1)NC(=O)[C@@H](NC(=O)[C@@H]1CCCN1C(=O)[C@H](CCCNC(=N)N)NC(=O)[C@H](CC(N)=O)NC(=O)[C@H](Cc1c[nH]c2ccccc12)NC(=O)[C@H](CCCN)N=C(N(C)C)N(C)C)C(C)C)C(=O)N1CCC[C@H]1C(=O)N[C@@H](CCCNC(=N)N)C(=O)N1CCC[C@H]1C(=O)N[C@@H](CCCNC(=N)N)C(=O)N[C@@H](CCCNC(=N)N)C(=O)N1CCC[C@H]1C(=O)N[C@@H](Cc1c[nH]cn1)C(=O)N1CCC[C@H]1C(=O)N[C@@H](CCCNC(=N)N)C(=O)N[C@@H](CC(C)C)C(N)=O [compound 89] ({Orn(α-tetramethylguanidino)}-WNRPVYIPRPRRPHPRL-NH2; N-terminus and C-terminus assumed) | 16 µg/mL (≈ 6.61 µM) | 8 µg/mL (≈ 3.3 µM) | 8 µg/mL (≈ 3.3 µM) | >64 µg/mL | 2 µg/mL (≈ 0.826 µM) | MIC S. aureus DSM 6247 (S. aureus DSM 6247 [3]): 8 to 16 µg/mL; MIC P. aeruginosa PAO DSM 9644 [5]: 4 µg/mL (≈ 1.65 µM); MIC E. coli DSM 1103 (E. coli DSM 1103): 8 µg/mL (≈ 3.3 µM); half-life (in vitro; 25% mouse serum): 0.267 ± 0.0167 h |
